Laboratory results: PubChem BioAssay AID1918935 (Molecular Pharmacology Branch, DTP, NCI, 2023)

Test system: 324938-238-R-J1-PDC complex spheroid viability
Test: Anticancer human tumor 324938-238-R-J1-PDC patient-derived bladder carcinoma cell line growth inhibition
Settings: for IC50: curve of first compound; for viability, T/C: stronger effect = lower value
How it was run: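 Multicellular complex spheroids of tumor cells with human endothelial cells (HUVEC) and mesenchymal stem cells; the LSD1 inhibitor iadademstat was combined with standard-of-care or investigational agents. Top concentration at or near clinical Cmax, half-log dilutions; final DMSO ≤0.25%.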
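Also: spheroids also contain HUVEC and human MSCs and agents combined with iadademstat; spheroids exposed to agents for 7 days before readout.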

## Nc1ccccc1NC(=O)c1ccc(CNC(=O)OCc2cccnc2)cc1 + NC1CC1c1ccc(-c2cccc(O)c2)cc1
Second compound 0.1 µM
  IC50: 501 nM
Second compound 0.316 µM
  IC50: 437 nM
Second compound 1 µM
  IC50: 487 nM
Second compound 3.16 µM
  IC50: 489 nM
Second compound 10 µM
  IC50: 401 nM
Second compound 0.1 µM, first compound 0.00949 µM
  viability, T/C: 86.6%
Second compound 0.1 µM, first compound 0.03 µM
  viability, T/C: 87.6%
Second compound 0.1 µM, first compound 0.0949 µM
  viability, T/C: 70.2%
Second compound 0.1 µM, first compound 0.3 µM
  viability, T/C: 62.6%
Second compound 0.1 µM, first compound 0.949 µM
  viability, T/C: 36.7%
Second compound 0.1 µM, first compound 3 µM
  viability, T/C: 7.26%
Second compound 0.316 µM, first compound 0.00949 µM
  viability, T/C: 83.8%
Second compound 0.316 µM, first compound 0.03 µM
  viability, T/C: 80.1%
Second compound 0.316 µM, first compound 0.0949 µM
  viability, T/C: 71.7%
Second compound 0.316 µM, first compound 0.3 µM
  viability, T/C: 56.1%
Second compound 0.316 µM, first compound 0.949 µM
  viability, T/C: 35.9%
Second compound 0.316 µM, first compound 3 µM
  viability, T/C: 5.68%
Second compound 1 µM, first compound 0.00949 µM
  viability, T/C: 67.2%
Second compound 1 µM, first compound 0.03 µM
  viability, T/C: 76%
Second compound 1 µM, first compound 0.0949 µM
  viability, T/C: 66.7%
Second compound 1 µM, first compound 0.3 µM
  viability, T/C: 56.3%
Second compound 1 µM, first compound 0.949 µM
  viability, T/C: 39.5%
Second compound 1 µM, first compound 3 µM
  viability, T/C: 3.75%
Second compound 3.16 µM, first compound 0.00949 µM
  viability, T/C: 76.7%
Second compound 3.16 µM, first compound 0.03 µM
  viability, T/C: 67%
Second compound 3.16 µM, first compound 0.0949 µM
  viability, T/C: 70.4%
Second compound 3.16 µM, first compound 0.3 µM
  viability, T/C: 59.2%
Second compound 3.16 µM, first compound 0.949 µM
  viability, T/C: 37.6%
Second compound 3.16 µM, first compound 3 µM
  viability, T/C: 5.73%
Second compound 10 µM, first compound 0.00949 µM
  viability, T/C: 63.2%
Second compound 10 µM, first compound 0.03 µM
  viability, T/C: 66.1%
Second compound 10 µM, first compound 0.0949 µM
  viability, T/C: 68.2%
Second compound 10 µM, first compound 0.3 µM
  viability, T/C: 51.2%
Second compound 10 µM, first compound 0.949 µM
  viability, T/C: 36.4%
Second compound 10 µM, first compound 3 µM
  viability, T/C: 6.9%

## CC1COCCN1c1cc(C2(S(C)(=N)=O)CC2)nc(-c2ccnc3[nH]ccc23)n1 (stereo not given) + NC1CCC(NC2CC2c2ccccc2)CC1
Second compound 0.1 µM
  IC50: 754 nM
Second compound 0.316 µM
  IC50: 851 nM
Second compound 1 µM
  IC50: 812 nM
Second compound 3.16 µM
  IC50: 546 nM
Second compound 10 µM
  IC50: 769 nM
Second compound 0.1 µM, first compound 0.0316 µM
  viability, T/C: 91.8%
Second compound 0.1 µM, first compound 0.1 µM
  viability, T/C: 78.1%
Second compound 0.1 µM, first compound 0.316 µM
  viability, T/C: 62.9%
Second compound 0.1 µM, first compound 1 µM
  viability, T/C: 48.9%
Second compound 0.1 µM, first compound 3.16 µM
  viability, T/C: 24.5%
Second compound 0.1 µM, first compound 10 µM
  viability, T/C: 13.3%
Second compound 0.316 µM, first compound 0.0316 µM
  viability, T/C: 93.9%
Second compound 0.316 µM, first compound 0.1 µM
  viability, T/C: 81.1%
Second compound 0.316 µM, first compound 0.316 µM
  viability, T/C: 72%
Second compound 0.316 µM, first compound 1 µM
  viability, T/C: 43.4%
Second compound 0.316 µM, first compound 3.16 µM
  viability, T/C: 30.4%
Second compound 0.316 µM, first compound 10 µM
  viability, T/C: 15.2%
Second compound 1 µM, first compound 0.0316 µM
  viability, T/C: 73.1%
Second compound 1 µM, first compound 0.1 µM
  viability, T/C: 77.2%
Second compound 1 µM, first compound 0.316 µM
  viability, T/C: 68.8%
Second compound 1 µM, first compound 1 µM
  viability, T/C: 43.9%
Second compound 1 µM, first compound 3.16 µM
  viability, T/C: 28.5%
Second compound 1 µM, first compound 10 µM
  viability, T/C: 16.7%
Second compound 3.16 µM, first compound 0.0316 µM
  viability, T/C: 68.8%
Second compound 3.16 µM, first compound 0.1 µM
  viability, T/C: 80%
Second compound 3.16 µM, first compound 0.316 µM
  viability, T/C: 57.6%
Second compound 3.16 µM, first compound 1 µM
  viability, T/C: 38.1%
Second compound 3.16 µM, first compound 3.16 µM
  viability, T/C: 25.9%
Second compound 3.16 µM, first compound 10 µM
  viability, T/C: 16.5%
Second compound 10 µM, first compound 0.0316 µM
  viability, T/C: 77.8%
Second compound 10 µM, first compound 0.1 µM
  viability, T/C: 85.7%
Second compound 10 µM, first compound 0.316 µM
  viability, T/C: 66.2%
Second compound 10 µM, first compound 1 µM
  viability, T/C: 43.7%
Second compound 10 µM, first compound 3.16 µM
  viability, T/C: 28.2%
Second compound 10 µM, first compound 10 µM
  viability, T/C: 16.8%
